PubChem BioAssay AID179 (DTP/NCI, 2004)
Active and inactive are the calls of the source.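 Rule for the calls: active = compounds giving half or more protection of infected cells from virus-caused growth loss, again on retest; inactive = the rest.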

Tested on: CEM cells HIV-1 protection, formazan growth assay
Assay: NCI AIDS Antiviral Assay
Conditions: for IC50: measured here: growth of uninfected CEM cells
Summary of the method: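 Protection of CEM cells against HIV-1 was scored from cell growth (soluble formazan) across five concentrations, with parallel uninfected cells. Lack of protection may reflect toxicity.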

Row | SMILES | EC50 [µM] | IC50 [µM] | outcome
1 | CC1=CC(=O)/C(=C/N2C(=S)NC(=O)/C2=C/c2cccc([N+](=O)[O-])c2)C(=O)O1 | > 200 | 138 | –
2 | Cc1nc(-c2cc3c(ccc4ccccc43)oc2=O)cs1 | > 100 | 95.5 | –
3 | CCCC(C)(COC(N)=O)COC(=O)NC1CC1 (centres undefined) | > 200 | > 200 | –
4 | CCOC(=O)C[N+]1(C)C2CCC1CC(O)C2 (centres undefined) | > 200 | > 200 | –
5 | CC(C)(C)[Si](C)(C)OCC1OC(n2ccc(=O)[nH]c2=O)C(OC(=S)Oc2ccccc2)C1O[Si](C)(C)C(C)(C)C (centres undefined) | > 200 | 2 | –
6 | O=c1sc(-c2nc3ccccc3[nH]2)c(/N=C/c2ccccc2)n1-c1ccccc1 | > 2.63 | > 2.63 | –
7 | OCCN(CCO)c1ccc2ccc(N(CCO)CCO)nc2n1 | > 200 | 25.7 | –
8 | CCN(CC)CC(=O)Nc1cccc(C(=O)OC(C)C)c1 | > 200 | > 200 | –
9 | CCSc1nc(-c2ccc(OC)cc2)c(C#N)c(=O)n1C1OCC(OC(C)=O)C(OC(C)=O)C1OC(C)=O (centres undefined) | > 200 | > 200 | –
10 | COC(OC)(c1ccccc1)C(I)I | – | – | inactive
11 | NC(=O)NC1C(C(=O)O)N(Cc2ccccc2)C(=O)N1Cc1ccccc1 (centres undefined) | > 490 | > 490 | –
12 | Cc1cccc(-n2c(C)nc3ccc(NC4OC(CO)C(O)C(O)C4O)cc3c2=O)c1 (centres undefined) | > 200 | > 200 | –
13 | COC(=O)C(=O)C(C(=O)OC)C(=O)C(=O)Nc1cc(Cl)c(Cl)cc1Cl (centres undefined) | > 17.4 | > 17.4 | –
14 | O=C(/C=C/c1ccco1)N1CCN(Cc2ccccc2)CC1 | > 282 | 263 | –
15 | C/C=C/OC1C(C2COC(C)(C)O2)OC2OC(C)(C)OC21 (centres undefined) | > 200 | > 200 | –
16 | CC1(C)C2CCC1(C)C(O)(c1ccccc1)C2=O (centres undefined) | > 91.2 | > 91.2 | –
17 | O=C(Nn1cc(F)c(=O)[nH]c1=O)C12CC3CC(CC(C3)C1)C2 | > 200 | 8.91 | –
18 | O=[N+]([O-])c1ccc2occ3c2c1CCC3 | 67.6 | 263 | –
19 | CN(C)NC(=S)Nc1ccccc1Br | > 200 | > 200 | –
20 | CSC(=Nc1ccccc1)c1c(C)[nH]n(-c2ccccc2)c1=O | > 200 | 126 | –
21 | CCCC1C(CC)C(NC)C(C#N)(C#N)C1(C#N)C#N (centres undefined) | > 200 | 10.2 | –

Row | SMILES | EC50 [µM] | IC50 [µM] | outcome
22 | Cc1cccc(C(C)(C)C)c1NC(=O)CC1C(=O)Nc2ccccc2S1(=O)=O (centres undefined) | > 1.86 | > 1.86 | –
23 | CCOC(=O)c1sc2nc(CN3CCOCC3)[nH]c(=O)c2c1C | > 77.6 | > 77.6 | –
24 | Cc1nn2c(=O)c([N+](=O)[O-])c(/C=C/c3ccco3)nc2s1 | > 200 | 45.7 | –
25 | COC(=S)SSC(=S)NCCNC(=S)SSC(=S)OC | > 200 | 9.55 | –
26 | CCOP(=O)(OCC)/C(C#N)=C/c1cnc(-c2ccccc2)[nH]1 | > 200 | 102 | –
27 | COc1ccc(CCNc2ccc(NCCc3ccc(OC)c(OC)c3)c3c2C(=O)c2ccccc2C3=O)cc1OC | – | – | inactive
28 | O=NNc1ccc2ccccc2n1 | > 200 | > 200 | –
29 | O=C(NNC(=O)c1ccccc1SSc1ccccc1C(=O)NNC(=O)c1ccccc1S)c1ccccc1S | 17.8 | 33.1 | –
30 | COC(=O)/C([O-])=C(\C(=O)OC)[n+]1cc(Br)cc2ccccc21 | > 200 | 77.6 | –
31 | c1ccc(CSC(SCc2ccccc2)c2ccccc2)cc1 | > 200 | > 200 | –
32 | O=P(O)(O)C1(P(=O)(O)O)CC1 | > 251 | > 251 | –
33 | CCOC(=O)C(Cc1ccccc1)P(=O)(OCC)OCC (centres undefined) | > 200 | 158 | –
34 | O=c1ccc(=O)c2c1c1[nH]c3ccccc3c1c1c(=O)c3ccccc3c(=O)c21 | > 200 | 18.6 | –
35 | Cn1ncnc1CCc1ccccc1 | > 32.4 | > 32.4 | –
36 | COc1cc(C2C(Cl)C(=O)N2NC(=O)c2ccc(NC(C)=O)cc2)cc(OC)c1OC (centres undefined) | > 200 | > 200 | –
37 | CCC[CH2][Sn]1([CH2]CCC)[O]C(=O)c2cccnc2[S]1 | > 33.9 | 0.631 | –
38 | CCOC(=O)c1nc2ccccc2nc1NCc1ccc(OC)c(OC)c1 | > 200 | > 200 | –
39 | Cc1ccc(S(=O)(=O)Nc2ccccc2NS(=O)(=O)c2ccc(C)cc2)cc1 | > 200 | 30.2 | –
40 | O=C(O)CSCc1cc(C(=O)Nc2ccc(/C=C/c3ccc(NC(=O)c4cc(CSCC(=O)O)c5cccnc5c4O)cc3S(=O)(=O)O)c(S(=O)(=O)O)c2)c(O)c2ncccc12 | 0.832 | 22.4 | –
41 | COc1ccc2nc(-c3ccccc3)c(=O)[nH]c2c1 | > 200 | 45.7 | –
42 | CC(C)c1cccc(C(C)C)c1NC(=O)C(=O)CC(=O)CC(c1ccccc1)c1c(O)c2ccccc2oc1=O (centres undefined) | > 468 | 229 | –

Row | SMILES | EC50 [µM] | IC50 [µM] | outcome
43 | COc1ccc([C@@H]2ON(C)[C@H]3CN(C)C(=O)[C@@H]23)cc1 | > 200 | > 200 | –
44 | O=C(CCCCCCCCC(=O)NN1C(=O)/C(=C\c2ccc(O)c(O)c2)SC1c1c(O)ccc2ccccc12)NN1C(=O)C(=Cc2ccc(O)c(O)c2)SC1c1c(O)ccc2ccccc12 (centres undefined) | > 200 | 1 | –
45 | OC12CCCCCC1(N1CCOCC1)c1ccccc12 (centres undefined) | > 200 | > 200 | –
46 | CCOC(=O)C(=CC[C@@H]1N[C@H](C(N)=O)Cc2c1[nH]c1ccccc21)C(=O)OCC | > 33.9 | > 33.9 | –
47 | COc1ccc(S(=O)(=O)n2c3c(c4ccccc42)[C@@H]2[C@@H](CCCN2C(=O)CS(=O)c2ccc(C)cc2)[C@H](Cl)C3)cc1 (some centres undefined) | > 200 | > 200 | –
48 | Cc1cc(O)c(C=NC(=S)C(N)=S)c(=O)o1 | > 200 | 41.7 | –
49 | N/C(=C\c1ccc(OCc2ccccc2)c(OCc2ccccc2)c1[N+](=O)[O-])C(=O)O | – | – | inactive
50 | Cn1c(=O)nc2n(-c3cc(Cl)ccc3Cl)c3ccccc3nc-2c1=O | – | – | inactive
51 | CC(=O)c1c(C)nc(SSc2nc(C)c(C(C)=O)c(-c3ccc(Cl)cc3)c2C#N)c(C#N)c1-c1ccc(Cl)cc1 | > 200 | > 200 | –
52 | CCCCCCCCCCCCCCCCCCNC(=O)OCC(CNS(=O)(=O)CCC[n+]1cccc2ccccc21)COC (centres undefined) | > 200 | 0.676 | –
53 | CC1=CC=CC(C)(C)CC1(O[Si](C)(C)C)C(F)(F)F (centres undefined) | > 200 | 148 | –
54 | CC1C=C2c3ccccc3CC2C2C(=O)OC(=O)C12 (centres undefined) | > 200 | > 200 | –
55 | CCCCC(/C=N/Nc1ccc([N+](=O)[O-])cn1)CC (centres undefined) | > 200 | > 200 | –
56 | CCOC(=O)C(NC(=O)CC)(Nc1ccc(S(=O)(=O)Nc2ncccn2)cc1)C(F)(F)F (centres undefined) | > 200 | > 200 | –
57 | CCCN1C(=O)CNC(=O)c2[nH]cnc21 | – | – | inactive
58 | C/C=C/C(=O)[C@@H](O)C(C)(C)C | – | – | inactive
59 | Oc1ccccc1-c1cnnc(-c2ccccc2O)c1 | > 97.7 | 18.2 | –
60 | CC(=O)Nc1ccccc1-c1ccccc1NC(C)=O | – | – | inactive
61 | Cn1c(=O)c2c(ncn2CCCCn2ccnc2[N+](=O)[O-])n(C)c1=O | > 200 | > 200 | –
62 | CC(C)CCC[C@@H](C)C1CCC2[C@@H]3CC(O)C4C[C@@H](OS(=O)(=O)O)CC[C@]4(C)C3CC[C@@]21C (some centres undefined) | > 49 | 24.5 | –
63 | CC1=C(C#N)C(=O)OC1(C)C(CC(=O)c1ccccc1)c1ccccc1 (centres undefined) | > 200 | 8.32 | –
